Article PMC8196580, “Identification of Kaurane-Type Diterpenes as Inhibitors of Leishmania Pteridine Reductase I” (Molecules, 2021)
Where two headings read alike, the source gives them in different places.

What was measured:
[1] = tested on: L. major; design: method as in ChEMBL; details: ref ChEMBL, cited from earlier work
[2] = tested on: L. major; assay: ChEMBL dataset of pIC50 values against L. major used for the RF model (Table S1); assay type: cell-based, Leishmania major; also: call rule not given here
[3] = ChemBL structures with pIC50 values used for Random forest model construction, L. major
[4] = Active/Inactive class assigned to the ChEMBL pIC50 value for Random forest model construction, ref ChEMBL
[5] = ChemBL structures with pIC50 values used for Random forest model construction (Table S1)
[6] = Active/Inactive class assigned to ChemBL structures for Random forest model construction (Table S1)

Structure (SMILES)	pIC50 Value [1, 3]	Outcome [2, 4]	pIC50 Value [1, 5]	Outcome [2, 6]
N#Cc1ccc(-c2c(-c3ccccc3)nc3ccccn23)cc1 [CHEMBL2151864]	4.00	Inactive	–	–
NC(=O)c1ccc(-c2c(-c3ccccc3)nc3ccccn23)cc1 [CHEMBL2151865]	4.57	Inactive	–	–
CCOC(=O)c1ccc(-c2c(-c3ccccc3)nc3ccccn23)cc1 [CHEMBL2151866]	5.28	Active	–	–
O=C(O)c1ccc(-c2c(-c3ccccc3)nc3ccccn23)cc1 [CHEMBL2151867]	4.00	Inactive	–	–
Clc1cc(Cl)cc(-c2c(-c3ccccc3)nc3ccccn23)c1 [CHEMBL2151868]	5.11	Active	–	–
c1ccc(-c2nc3ccccn3c2-c2cccnc2)cc1 [CHEMBL2151869]	4.65	Inactive	–	–
c1ccc(-c2nc3ccccn3c2-c2ccncc2)cc1 [CHEMBL2151870]	5.19	Active	–	–
c1ccc(-c2nc3ccccn3c2-c2cncnc2)cc1 [CHEMBL2151871]	4.00	Inactive	–	–
c1ccc(-c2nc3ccccn3c2-c2ccsc2)cc1 [CHEMBL2151872]	4.84	Inactive	–	–
Fc1ccc(-c2nc3ccccn3c2-c2ccccc2)cc1 [CHEMBL2151873]	4.64	Inactive	–	–
O=[N+]([O-])c1cccc(-c2c(-c3ccc(F)cc3)nc3ccccn23)c1 [CHEMBL2151874]	4.00	Inactive	–	–
Fc1ccc(-c2nc3ccccn3c2-c2cccnc2)cc1 [CHEMBL2151875]	4.42	Inactive	–	–
Fc1ccccc1-c1nc2ccccn2c1-c1ccccc1 [CHEMBL2151876]	4.41	Inactive	–	–
Fc1ccccc1-c1nc2ccccn2c1-c1cccnc1 [CHEMBL2151877]	4.46	Inactive	–	–
Clc1cccc(-c2nc3ccccn3c2-c2ccccc2)c1 [CHEMBL2151878]	–	–	5.36	Active
CCOC(=O)c1ccc(-c2nc3ccccn3c2-c2ccccc2)cc1 [CHEMBL2151879]	4.40	Inactive	–	–
O=[N+]([O-])c1ccc(-c2nc3ccccn3c2-c2ccccc2)cc1 [CHEMBL2151880]	4.52	Inactive	–	–
COc1ccc(-c2nc3ccccn3c2-c2ccccc2)cc1 [CHEMBL2151881]	4.58	Inactive	–	–
COc1ccc(-c2nc3ccccn3c2-c2cccc([N+](=O)[O-])c2)cc1 [CHEMBL2151882]	4.85	Inactive	–	–

Structure (SMILES)	pIC50 Value [1, 3]	Outcome [2, 4]	pIC50 Value [1, 5]	Outcome [2, 6]
COc1ccccc1-c1nc2ccccn2c1-c1ccccc1 [CHEMBL2151883]	4.74	Inactive	–	–
Clc1cc(Cl)cc(-c2nc3ccccn3c2-c2ccccc2)c1 [CHEMBL2151989]	4.41	Inactive	–	–
Clc1cc(Cl)cc(-c2nc3ccccn3c2-c2cccnc2)c1 [CHEMBL2151990]	4.50	Inactive	–	–
C[C@@H](OP(N)(=O)N(CCCl)CCCl)c1ccc([N+](=O)[O-])cc1 (stereo partly shown) [CHEMBL2158071]	4.52	Inactive	–	–
C[C@H](OP(N)(=O)N(CCCl)CCCl)c1ccc([N+](=O)[O-])cc1 (stereo partly shown) [CHEMBL2158072]	4.52	Inactive	–	–
NP(=O)(OCc1ccc([N+](=O)[O-])cn1)N(CCCl)CCCl (stereo not shown) [CHEMBL2158073]	5.08	Active	–	–
C[n+]1ccc(-c2c3nc(c(-c4cc[n+](C)cc4)c4ccc([nH]4)c(-c4cc[n+](C)cc4)c4nc(c(-c5cc[n+](C)cc5)c5ccc2[nH]5)C=C4)C=C3)cc1.Cc1ccc(S(=O)(=O)[O-])cc1.Cc1ccc(S(=O)(=O)[O-])cc1.Cc1ccc(S(=O)(=O)[O-])cc1.Cc1ccc(S(=O)(=O)[O-])cc1 [CHEMBL2170855]	4.68	Inactive	–	–
COc1ccc(-n2nnc3c(N4CCCC(O)C4)nc(CC4CCCCC4)nc32)cc1 (stereo not shown) [CHEMBL2171512]	5.07	Active	–	–
CC(=O)N1c2ccccc2Oc2ccccc21 [CHEMBL2180182]	4.00	Inactive	–	–
Cc1ccc2cc(C3CC(c4ccc(Br)s4)=NN3)c(Cl)nc2c1 (stereo not shown) [CHEMBL2235715]	–	–	5.64	Active
Cc1ccc2cc(C3CC(c4ccc(I)s4)=NN3)c(Cl)nc2c1 (stereo not shown) [CHEMBL2235716]	–	–	5.71	Active
Cc1cccc2cc(C3CC(c4ccsc4)=NN3)c(Cl)nc12 (stereo not shown) [CHEMBL2235717]	–	–	5.69	Active
Cc1ccsc1C1=NNC(c2cc3cccc(C)c3nc2Cl)C1 (stereo not shown) [CHEMBL2235718]	–	–	5.64	Active
Cc1csc(C2=NNC(c3cc4cccc(C)c4nc3Cl)C2)c1 (stereo not shown) [CHEMBL2235719]	–	–	5.66	Active
Cc1ccc(C2=NNC(c3cc4cccc(C)c4nc3Cl)C2)s1 (stereo not shown) [CHEMBL2235720]	–	–	5.58	Active
Cc1cc(C2=NNC(c3cc4cccc(C)c4nc3Cl)C2)c(C)s1 (stereo not shown) [CHEMBL2235721]	–	–	5.58	Active
Cc1cccc2cc(C3CC(c4sccc4Cl)=NN3)c(Cl)nc12 (stereo not shown) [CHEMBL2236129]	–	–	5.63	Active
Cc1cccc2cc(C3CC(c4ccc(Cl)s4)=NN3)c(Cl)nc12 (stereo not shown) [CHEMBL2236130]	–	–	5.68	Active
Cc1cccc2cc(C3CC(c4cc(Cl)sc4Cl)=NN3)c(Cl)nc12 (stereo not shown) [CHEMBL2236131]	–	–	5.70	Active

Structure (SMILES)	pIC50 Value [1, 3]	Outcome [2, 4]	pIC50 Value [1, 5]	Outcome [2, 6]
Cc1cccc2cc(C3CC(c4sccc4Br)=NN3)c(Cl)nc12 (stereo not shown) [CHEMBL2236132]	–	–	5.64	Active
Cc1cccc2cc(C3CC(c4ccc(Br)s4)=NN3)c(Cl)nc12 (stereo not shown) [CHEMBL2236133]	–	–	5.64	Active
Cc1cccc2cc(C3CC(c4ccc(I)s4)=NN3)c(Cl)nc12 (stereo not shown) [CHEMBL2236134]	–	–	5.77	Active
Cc1ccc2cc(C3CC(c4ccsc4)=NN3)c(Cl)nc2c1 (stereo not shown) [CHEMBL2236135]	–	–	5.54	Active
Cc1ccc2cc(C3CC(c4sccc4C)=NN3)c(Cl)nc2c1 (stereo not shown) [CHEMBL2236136]	–	–	5.65	Active
Cc1csc(C2=NNC(c3cc4ccc(C)cc4nc3Cl)C2)c1 (stereo not shown) [CHEMBL2236137]	–	–	5.59	Active
Cc1ccc2cc(C3CC(c4ccc(C)s4)=NN3)c(Cl)nc2c1 (stereo not shown) [CHEMBL2236138]	–	–	5.58	Active
Cc1ccc2cc(C3CC(c4cc(C)sc4C)=NN3)c(Cl)nc2c1 (stereo not shown) [CHEMBL2236139]	–	–	5.67	Active
Cc1ccc2cc(C3CC(c4sccc4Cl)=NN3)c(Cl)nc2c1 (stereo not shown) [CHEMBL2236140]	–	–	5.67	Active
Cc1ccc2cc(C3CC(c4ccc(Cl)s4)=NN3)c(Cl)nc2c1 (stereo not shown) [CHEMBL2236141]	–	–	5.64	Active
Cc1ccc2cc(C3CC(c4cc(Cl)sc4Cl)=NN3)c(Cl)nc2c1 (stereo not shown) [CHEMBL2236142]	–	–	5.75	Active
Cc1ccc2cc(C3CC(c4sccc4Br)=NN3)c(Cl)nc2c1 (stereo not shown) [CHEMBL2236143]	–	–	5.68	Active
CC(=O)CCCCCCCCCC[C@H]1CC[C@@H](O)[C@@H](C)N1 [CHEMBL2262843]	5.27	Active	–	–
Cc1ccc(-c2nc3ccccc3[nH]2)cc1 [CHEMBL2283280]	–	–	5.42	Active
Cc1ccc(-c2nc3ccc([N+](=O)[O-])cc3[nH]2)o1 [CHEMBL2295863]	–	–	5.58	Active
O=[N+]([O-])c1ccc2nc(-c3ccc(F)cc3)[nH]c2c1 [CHEMBL2297902]	–	–	5.52	Active
CCCCOc1ccc(-c2nc3cc([N+](=O)[O-])ccc3[nH]2)cc1 [CHEMBL2297903]	–	–	5.61	Active
CC(C)c1ccc(-c2nc3cc([N+](=O)[O-])ccc3[nH]2)cc1 [CHEMBL2297904]	–	–	5.55	Active
